Like-named read-outs stand apart in the source and are kept apart here.
Key:
Sprague-Dawley rats = experiment: Kainic acid induced seizures in rats; assay type: in vivo, rat; design: key to Seizures Severity Mean ± SD (grade 0 to IV): seizure grade 0 = no response to IV = status epilepticus; details: 20 μmoles/kg IP; for Seizures Severity Mean ± SD (grade 0 to IV) / Seizures Mean ± SD (1 = yes, 0 = no): KA 15 mg/kg i.p.; for Seizures Mean ± SD (1 = yes, 0 = no): 2 hours; for change in vivo at 20 µmol/kg: Rattus norvegicus, 2 h, vs DMSO control
Description: Formulation of kainic acid was performed by NTS as a stock solution by reconstituting kainic acid with (100%) saline that was stored at 4° C. Vehicle control received saline solution. […] The research investigators were blinded to the treatment groups.
Solutions were prepared fresh daily just prior to use; dosing of all 10 rats with any given compound occurred on a single day after preparing the dosing solution. […] Unused remaining dosing solutions were stored frozen.
Animals were maintained in a temperature- and light-controlled environment in accord with the principles and procedures of the National Institutes of Health Guidelines for Care and Use of Laboratory Animals. Seizures were induced in adult, male Sprague-Dawley rats (260-300 g) by injection of KA (15 mg/kg, i.p.). In addition, animals were injected with test compounds following kainic acid to determine the effects on protection from epilepsy. Animals were monitored behaviorally for seizures for 2 hours after injection.
Seizure activity was initially characterized as either yes (1) or no (0) within a 2 hour period following injection of KA. A seizure severity grade was assigned based on the maximal response achieved on a scale from 0 to IV as follows: 0, no response; I, single limb clonus and scratching; II, multiple limb clonus and staggering gait; […], limb clonus, tonic extension of limbs and falling; IV, continuous grade III seizures for longer than 30 min (status epilepticus).
The results were expressed as the mean±standard deviation (SD). The significance of difference in the epileptic data was analyzed using a one-way analysis of variance (ANOVA) followed by Fisher's post hoc test. Repeated-measures ANOVA were computed on the monitoring data and the significance of the difference among groups were evaluated by Fisher's post hoc test.
All groups were subjected to kainic acid.
The induction of seizures in rats with kainic acid was determined as either yes seizures (1) or no seizures (0).

Na+K+Cl− co-transporter = molecular target: T1, Na+K+Cl− co-transporter (Rattus norvegicus, UniProt E9PTX9); experiment: Na+K+Cl− cotransporter assay, 86Rb uptake in A7r5 cells; assay type: cell-based; details: 10 minutes at 37° C.; for inhibition at 10 µM: read-out: % Inhibition of Control Values; for remaining activity at 10 µM: read-out: % of Control Value
T1 construct: endogenous in cells; host or cells: A7r5 cells
T1 sequence (E9PTX9 1-1203): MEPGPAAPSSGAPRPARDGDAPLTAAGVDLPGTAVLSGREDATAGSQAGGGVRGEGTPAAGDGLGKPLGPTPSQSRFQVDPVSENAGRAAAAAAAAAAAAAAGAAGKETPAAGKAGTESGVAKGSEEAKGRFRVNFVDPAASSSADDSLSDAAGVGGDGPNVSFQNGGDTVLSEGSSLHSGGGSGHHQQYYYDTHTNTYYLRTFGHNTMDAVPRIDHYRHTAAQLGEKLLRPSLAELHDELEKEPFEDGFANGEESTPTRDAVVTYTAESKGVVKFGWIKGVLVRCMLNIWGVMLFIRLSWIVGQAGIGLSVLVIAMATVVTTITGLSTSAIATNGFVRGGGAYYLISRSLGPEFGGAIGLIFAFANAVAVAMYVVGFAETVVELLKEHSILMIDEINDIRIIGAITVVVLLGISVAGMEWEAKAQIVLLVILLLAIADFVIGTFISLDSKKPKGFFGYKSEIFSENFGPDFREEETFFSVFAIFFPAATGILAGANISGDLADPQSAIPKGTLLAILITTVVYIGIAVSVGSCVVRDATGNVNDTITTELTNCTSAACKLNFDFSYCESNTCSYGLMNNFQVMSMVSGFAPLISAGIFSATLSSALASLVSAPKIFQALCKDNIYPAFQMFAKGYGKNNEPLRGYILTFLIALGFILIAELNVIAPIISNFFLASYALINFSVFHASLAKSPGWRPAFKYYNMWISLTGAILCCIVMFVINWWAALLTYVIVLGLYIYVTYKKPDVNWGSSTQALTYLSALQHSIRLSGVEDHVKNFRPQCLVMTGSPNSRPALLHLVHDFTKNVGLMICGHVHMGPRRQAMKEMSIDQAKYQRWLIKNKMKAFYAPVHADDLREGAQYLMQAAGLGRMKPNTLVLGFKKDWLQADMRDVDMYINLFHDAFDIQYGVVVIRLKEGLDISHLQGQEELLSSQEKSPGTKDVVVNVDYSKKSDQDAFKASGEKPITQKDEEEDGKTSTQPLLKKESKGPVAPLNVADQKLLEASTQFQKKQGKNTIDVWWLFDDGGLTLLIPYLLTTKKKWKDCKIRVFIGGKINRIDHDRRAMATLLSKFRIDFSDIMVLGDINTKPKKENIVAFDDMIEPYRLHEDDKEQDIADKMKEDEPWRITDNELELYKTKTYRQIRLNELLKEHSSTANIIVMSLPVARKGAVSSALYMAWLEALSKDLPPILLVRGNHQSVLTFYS
Description: Na^+K^+Cl^− co-transporter activity was measured in vitro in A7r5 cells by measuring their uptake of ^86Rb (0.2 μCi) in 10 minutes at 37° C. as detected by scintillation counting. See Chassande, et al. (1988) “The Na^+/K^+/Cl^− Cotransport in C6 glioma cells. Properties and role in volume regulation.” Eur. J. Biochem. 171: 425433.

mouse = experiment: Formalin test (acute/early and late phase) in mice; assay type: in vivo; details: 150 mg/kg i.p., mice
Description: The formalin test was performed according to the method of Tjølsen, et al. (October 1992) “The formalin test: an evaluation of the method.” Pain 51(1): 5-17. An injection of 0.5% formalin is made into the plantar region of the right hind paw of a mouse. This elicits a distinct behavioral profile in response to the formalin injection characterized by the mouse licking the affected paw. The behavior is characteristically biphasic in nature. For example, immediately following the injection the mouse intensely licks the paw for approximately 5-10 minutes (“min.”) This initial behavior was considered phase 1 (acute) and is thought to be mediated primarily by chemical activation of local C-fibers. The acute phase is followed by a brief latent (usually <5 min) period where there is little or no behavioral activity. A more prolonged (about 20 to 30 min) period of licking then ensues which constitutes phase 2 of the response (late phase). See e.g., Tjølsen, et al. (Feb. 7, 1991) “Antinociceptive effect of paracetamol in rats is partly dependent on spinal serotonergic systems. Eur J Pharmacol. 193(2): 193-201 and Tjølsen, et al. (June 1991) Lesions of bulbo-spinal serotonergic or noradrenergic pathways reduce nociception as measured by the formalin test. Acta Physiol Scand. 142(2): 229-36, the disclosures of each of which are hereby incorporated by reference in its entirety.
It is in these tubes that mice are later observed for the licking activity for the duration of the experiment. Following the conditioning, the test substance was administered i.p. in a dose equivalent to the MES ED50 and the mouse returned to its home tube. At the TPE of the drug, the formalin is injected subdermally into the plantar surface of the right hind foot. It is given in a volume of 20 μl with a 27 gauge stainless steel needle attached to a Hamilton syringe. The bevel of the needle was placed facing down toward the skin surface. […] The cumulative length of licking for each 2-min time period was measured. […] Animals are euthanized following the conclusion of the experiment.
Area under the curve (AUC) and subsequent percent of control for drug-treated animal groups is determined using the GraphPad Prism Version 3.03. Total AUC was calculated for both the test and control groups for both the acute and inflammatory phases. The AUC for individual animals for each phase was also calculated and converted to percentage of total AUC of control. The average and S.E.M. for both the drug treated and control percentages were calculated and tested for significant difference.

[1] = read-out: Percent reduction in Seizures
[2] = read-out: Percent reduction in Seizures Severity

| SMILES | Seizures Severity Mean ± SD (grade 0 to IV) (Sprague-Dawley rats) | Seizures Mean ± SD (1 = yes, 0 = no) (Sprague-Dawley rats) | change in vivo at 20 µmol/kg (Sprague-Dawley rats; [1]) [%] | change in vivo at 20 µmol/kg (Sprague-Dawley rats; [2]) [%] | inhibition at 10 µM (Na+K+Cl− co-transporter) [%] | remaining activity at 10 µM (Na+K+Cl− co-transporter) [%] | % of Control, Acute (mouse) [%] | % of Control, Late Phase (mouse) [%] | Treated (AUC of licking time), Acute (mouse) | Treated (AUC of licking time), Late Phase (mouse) |
| --- | --- | --- | --- | --- | --- | --- | --- | --- | --- | --- |
| CCCCNc1cc(C(=O)N(Cc2ccccc2)Cc2ccccc2)cc(S(N)(=O)=O)c1Oc1ccccc1 [NTP-2008, N,N-Dibenzyl 3-Aminosulfonyl-5-butylamino-4-phenoxybenzamide] | 0.1000 ± 0.3162 | 0.1000 ± 0.3162 | -88.9 | -95.8 | 17 | 82.8 | 63.69 | 10.66 | 73.94 | 66.42 |
| CCCCNc1cc(C(=O)OCC(=O)N(C)C)cc(S(N)(=O)=O)c1Oc1ccccc1 [NTP-2011, N,N-Dimethylaminocarbonylmethyl 3-Aminosulfonyl-5-butylamino-4-phenoxybenzoate] | 0.3000 ± 0.6749 | 0.2000 ± 0.4216 | -77.8 | -87.5 | 13 | 87.4 | 53.37 | 0.72 | 78.55 | 5.43 |
| CCCCNc1cc(C(=O)OCOC(=O)C(C)(C)C)cc(S(N)(=O)=O)c1Oc1ccccc1 [NTP-2012, t-Butylcarbonyloxymethyl 3-Aminosulfonyl-5-butylamino-4-phenoxybenzoate] | 0.2000 ± 0.4216 | 0.2000 ± 0.4216 | -77.8 | -91.7 | 35 | 65.5 | 48.5 | 0.49 | 75.07 | 5.08 |

From US9682928B2 (NeuroPro Therapeutics, Inc., priority 2009, dated 2017)
